Reference: publication PMC3189207, “DomPep—A General Method for Predicting Modular Domain-Mediated Protein-Protein Interactions” (PLoS ONE, 2011)
Read-outs that look alike come from different tables or passages of the source. Residues, ends and D or L forms follow the SMILES beside them.

Columns and labels:
Scrib PDZ-1 domain = molecular target: T1, Scrib PDZ-1 domain (Homo sapiens, UniProt Q14160); experiment: In-solution fluorescence polarization binding of peptides to Scrib PDZ1
T1 construct: ROC curves of DomPep prediction for the three Scrib PDZ-1/2/3 domains
T1 sequence (Q14160 728-815 limits assumed): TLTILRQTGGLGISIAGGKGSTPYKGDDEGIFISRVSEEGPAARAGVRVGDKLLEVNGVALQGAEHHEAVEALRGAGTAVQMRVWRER

Scrib PDZ-2 domain = molecular target: T2, Scrib PDZ-2 domain (Homo sapiens, UniProt Q14160); experiment: In-solution fluorescence polarization binding of peptides to Scrib PDZ2
T2 construct: ROC curves of DomPep prediction for the three Scrib PDZ-1/2/3 domains
T2 sequence (Q14160 862-950 limits assumed): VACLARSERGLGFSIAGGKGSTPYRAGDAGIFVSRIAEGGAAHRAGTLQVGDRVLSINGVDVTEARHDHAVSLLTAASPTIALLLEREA

Scrib PDZ-3 domain = molecular target: T3, Scrib PDZ-3 domain (Homo sapiens, UniProt Q14160); experiment: In-solution fluorescence polarization binding of peptides to Scrib PDZ3; conditions: Kd value of 100 µM applied as binding cutoff, NB without definition
T3 construct: ROC curves of DomPep prediction for the three Scrib PDZ-1/2/3 domains
T3 sequence (Q14160 1004-1093 limits assumed): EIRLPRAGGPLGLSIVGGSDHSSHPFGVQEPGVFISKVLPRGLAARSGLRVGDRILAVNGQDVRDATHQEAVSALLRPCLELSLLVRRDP
Source text: Because DomPep compared favorably to MDSM in identifying ligands for a PDZ domain included in the training set and to SPSSM in identifying binding peptides for an untrained PDZ domain, we next tested it whether it could reliably PPIs mediated by a PDZ domain on the genome scale. To this end, we employed three DomPep models to predict interactions between the Scrib PDZ domains and human proteins from the Swiss-Prot protein database. The three prediction models, which were generated for the mouse Scrib PDZ-1, PDZ-2 and PDZ-3 domains, were trained with 6, 5 and 30 positive peptide, respectively (Table S1). Searching the protein database with these models yielded a list of potential PDZ ligands. […] This experiment identified 14, 14, and 38 positives for the PDZ-1, -2, and -3 domains, respectively (Table 1). […] Importantly, we identified four peptides that were not included in the training set as physiological binders to the Scrib PDZ domains. The corresponding proteins, namely APC, LPP, VANGL2 and ZO2, were previously reported to interact with Scrib in vivo via its PDZ domains, [36], [37], [38], [39].
Figure 4 Application of DomPep to the prediction of PDZ-binding ligands. ROC curves of DomPep prediction for the three Scrib PDZ-1/2/3 domains using 56 peptides selected from the human protein database as the test set. The respective affinities of the three domains for the 56 peptides were measured by fluorescence polarization (Table 1).

[1] = Kd value of 100 µM applied as binding cutoff, NB without definition, read-out: Kd (µM) PDZ1
[2] = Kd value of 100 µM applied as binding cutoff, NB without definition, read-out: Kd (µM) PDZ2

Row | SMILES | Kd (Scrib PDZ-1 domain; [1]) | Kd (Scrib PDZ-2 domain; [2]) | Kd (Scrib PDZ-3 domain) | Kd (Scrib PDZ-1 domain; read-out: Kd (µM) PDZ1, Kd value of 100 µM applied as binding cutoff, NB without definition) | Kd (Scrib PDZ-2 domain; read-out: Kd (µM) PDZ2, Kd value of 100 µM applied as binding cutoff, NB without definition)
1 | CC(C)C[C@H](NC(=O)[C@H](CCCCN)NC(=O)[C@H](CO)NC(=O)[C@H](CC(N)=O)NC(=O)[C@@H](NC(=O)[C@H](CO)NC(=O)[C@H](Cc1c[nH]cn1)NC(=O)[C@@H]1CCCN1C(=O)[C@H](CC(C)C)NC(=O)[C@@H](N)CCC(=O)O)C(C)C)C(=O)O [ZADH2] (H-ELPHSVNSKL-OH; N-terminus and C-terminus assumed) | > 100 µM | > 100 µM | > 100 µM | – | –
2 | CC(C)[C@H](NC(=O)[C@H](CCCNC(=N)N)NC(=O)[C@@H](N)CC(=O)O)C(=O)N[C@@H](C)C(=O)N[C@@H](CCC(=O)O)C(=O)N[C@@H](CCC(N)=O)C(=O)N[C@@H](CC(=O)O)C(=O)N[C@H](C(=O)N[C@@H](CCC(N)=O)C(=O)N[C@@H](C)C(=O)O)[C@@H](C)O [MPG] (H-DRVAEQDTQA-OH) | > 100 µM | > 100 µM | 186 µM | – | –
3 | CC[C@H](C)[C@H](NC(=O)[C@@H]1CCCN1C(=O)[C@@H]1CCCN1C(=O)[C@@H](NC(=O)[C@H](CO)NC(=O)[C@H](Cc1ccc(O)cc1)NC(=O)[C@H](CC(C)C)NC(=O)[C@@H](NC(=O)[C@@H](NC(=O)[C@@H](N)CO)C(C)C)C(C)C)[C@@H](C)O)C(=O)O [FLT1] (H-SVVLYSTPPI-OH; N-terminus and C-terminus assumed) | > 100 µM | > 100 µM | > 100 µM | – | –
4 | CC(C)C[C@H](NC(=O)[C@H](CCC(=O)O)NC(=O)[C@H](CCCNC(=N)N)NC(=O)[C@H](Cc1c[nH]c2ccccc12)NC(=O)[C@@H]1CCCN1C(=O)[C@@H]1CCCN1C(=O)[C@H](CC(=O)O)NC(=O)CNC(=O)[C@H](CCCNC(=N)N)NC(=O)[C@@H]1CCCN1)C(=O)O [C19orf57] (H-PRGDPPWREL-OH; N-terminus and C-terminus assumed) | > 100 µM | > 100 µM | > 100 µM | – | –
5 | CSCC[C@H](NC(=O)CNC(=O)[C@H](CC(N)=O)NC(=O)[C@@H](NC(=O)[C@H](CC(C)C)NC(=O)[C@H](CCC(N)=O)NC(=O)[C@@H](N)C(C)C)C(C)C)C(=O)N[C@H](C(=O)N1CCC[C@H]1C(=O)N[C@@H](CC(C)C)C(=O)O)C(C)C [EPHA5] (H-VQLVNGMVPL-OH) | > 100 µM | 75.7 µM | – | – | –
6 | CC(C)C[C@H](NC(=O)[C@@H]1CCCN1C(=O)[C@@H](NC(=O)[C@H](CCC(=O)O)NC(=O)[C@H](CCCCN)NC(=O)[C@H](CO)NC(=O)[C@@H](NC(=O)[C@H](CCCNC(=N)N)NC(=O)[C@H](C)NC(=O)CN)C(C)C)[C@@H](C)O)C(=O)O [MAPK12] (H-GARVSKETPL-OH) | 20.3 µM | 56.1 µM | – | – | –
7 | CC(C)C[C@H](NC(=O)[C@H](CO)NC(=O)[C@@H](NC(=O)[C@@H](NC(=O)[C@@H](NC(=O)[C@H](Cc1ccccc1)NC(=O)[C@@H](NC(=O)[C@H](CC(=O)O)NC(=O)[C@H](CCC(=O)O)NC(=O)[C@@H]1CCCN1)[C@@H](C)O)[C@@H](C)O)C(C)C)[C@@H](C)O)C(=O)O [AHDC1] (H-PEDTFTVTSL-OH) | 19.2 µM | > 100 µM | – | – | –
8 | CSCC[C@H](NC(=O)[C@H](CC(C)C)NC(=O)[C@@H](NC(=O)[C@H](C)NC(=O)[C@H](CCSC)NC(=O)[C@H](CCCCN)NC(=O)[C@H](CC(N)=O)NC(=O)[C@@H]1CCCN1C(=O)[C@H](CC(N)=O)NC(=O)[C@@H](N)CC(C)C)[C@@H](C)O)C(=O)O [GLO1] (H-LNPNKMATLM-OH) | – | – | – | > 100 µM | > 100 µM
9 | CC[C@H](C)[C@H](NC(=O)[C@H](CCC(N)=O)NC(=O)[C@@H](NC(=O)[C@@H](NC(=O)[C@H](Cc1c[nH]cn1)NC(=O)[C@H](CCC(N)=O)NC(=O)CNC(=O)[C@@H]1CCCN1C(=O)[C@H](C)NC(=O)[C@@H]1CCCN1)[C@@H](C)O)[C@@H](C)O)C(=O)O [STK16] (H-PAPGQHTTQI-OH) | > 100 µM | > 100 µM | – | – | –
10 | CC[C@H](C)[C@H](NC(=O)[C@@H](NC(=O)[C@H](CCC(=O)O)NC(=O)[C@H](CO)NC(=O)[C@@H]1CCCN1C(=O)[C@H](CCC(N)=O)NC(=O)[C@H](C)NC(=O)[C@H](CO)NC(=O)[C@@H](N)CO)[C@@H](C)O)C(=O)N[C@@H](CC(C)C)C(=O)O [ZNF654] (H-SSAQPSETIL-OH) | > 100 µM | 32.1 µM | – | – | –
11 | CC[C@H](C)[C@H](NC(=O)[C@H](CCCNC(=N)N)NC(=O)[C@@H](NC(=O)[C@H](CCCNC(=N)N)NC(=O)[C@H](CO)NC(=O)[C@H](C)NC(=O)[C@@H](N)CC(N)=O)[C@@H](C)O)C(=O)N[C@H](C(=O)N[C@@H](Cc1ccccc1)C(=O)N[C@H](C(=O)O)C(C)C)[C@@H](C)O [MCM7] (H-NASRTRITFV-OH) | > 100 µM | > 100 µM | – | – | –
12 | CC(C)C[C@H](NC(=O)[C@H](Cc1ccc(O)cc1)NC(=O)[C@H](CO)NC(=O)CNC(=O)[C@H](CO)NC(=O)[C@@H](N)Cc1c[nH]cn1)C(=O)N[C@H](C(=O)N[C@H](C(=O)N[C@@H](CO)C(=O)N[C@H](C(=O)O)C(C)C)[C@@H](C)O)C(C)C [APC] (H-HSGSYLVTSV-OH) | 12.3 µM | 9.5 µM | – | – | –

Further lines, with some results ahead:

Row | Kd (Scrib PDZ-1 domain; [1]) | Kd (Scrib PDZ-2 domain; [2]) | Kd (Scrib PDZ-3 domain) | SMILES | Kd (Scrib PDZ-1 domain; read-out: Kd (µM) PDZ1, Kd value of 100 µM applied as binding cutoff, NB without definition) | Kd (Scrib PDZ-2 domain; read-out: Kd (µM) PDZ2, Kd value of 100 µM applied as binding cutoff, NB without definition)
13 | 129 µM | > 100 µM | > 100 µM | CC(C)[C@H](NC(=O)[C@@H]1CCCN1C(=O)[C@@H](NC(=O)[C@@H]1CCCN1C(=O)CNC(=O)[C@H](CC(N)=O)NC(=O)[C@H](CCCCN)NC(=O)[C@H](CO)NC(=O)[C@H](CCC(N)=O)NC(=O)[C@@H](N)[C@@H](C)O)C(C)C)C(=O)O [EPHA3] (H-TQSKNGPVPV-OH) | – | –
14 | > 100 µM | > 100 µM | > 100 µM | CC(C)C[C@H](NC(=O)[C@H](CCCCN)NC(=O)[C@H](CO)NC(=O)[C@H](CCC(=O)O)NC(=O)[C@H](CO)NC(=O)[C@@H](NC(=O)[C@H](CCC(N)=O)NC(=O)[C@@H]1CCCN1C(=O)[C@H](CCCCN)NC(=O)[C@@H](N)C(C)C)C(C)C)C(=O)O [PTE1] (H-VKPQVSESKL-OH; N-terminus and C-terminus assumed) | – | –
15 | > 100 µM | > 100 µM | – | CC[C@H](C)[C@H](N)C(=O)N[C@@H](CC(C)C)C(=O)N[C@@H](CCCNC(=N)N)C(=O)N[C@@H](CCCCN)C(=O)N[C@@H](CO)C(=O)N[C@H](C(=O)N[C@H](C(=O)N[C@H](C(=O)N[C@H](C(=O)N[C@H](C(=O)O)C(C)C)[C@@H](C)O)[C@@H](C)O)[C@@H](C)O)[C@@H](C)O [DSC54] (H-ILRKSTTTTV-OH) | – | –
16 | 1.9 µM | 17.6 µM | – | CC(C)C[C@H](NC(=O)[C@H](CO)NC(=O)[C@@H](NC(=O)[C@H](CCC(=O)O)NC(=O)[C@H](CCC(=O)O)NC(=O)[C@H](CS)NC(=O)[C@@H](NC(=O)[C@H](CCCNC(=N)N)NC(=O)[C@@H](NC(=O)[C@@H]1CCCN1)C(C)C)C(C)C)[C@@H](C)O)C(=O)O [FAM105B] (H-PVRVCEETSL-OH) | – | –
17 | > 100 µM | 24.9 µM | – | CC(C)C[C@H](NC(=O)[C@H](CS)NC(=O)[C@H](Cc1c[nH]cn1)NC(=O)[C@H](CC(C)C)NC(=O)[C@H](C)NC(=O)[C@H](CCC(=O)O)NC(=O)[C@H](CC(C)C)NC(=O)[C@H](CCC(=O)O)NC(=O)[C@@H]1CCCN1C(=O)[C@@H](N)CC(=O)O)C(=O)O [EPHA8] (H-DPELEALHCL-OH) | – | –
18 | 23.6 µM | 34.3 µM | – | CC(C)C[C@H](NC(=O)[C@@H]1CCCN1C(=O)[C@@H](NC(=O)[C@H](CCC(=O)O)NC(=O)[C@H](CCCCN)NC(=O)[C@H](CCCCN)NC(=O)[C@H](Cc1ccc(O)cc1)NC(=O)[C@H](CC(N)=O)NC(=O)[C@H](Cc1ccccc1)NC(=O)[C@@H](N)CO)[C@@H](C)O)C(=O)O [ARD50] (H-SFNYKKETPL-OH) | – | –
19 | > 100 µM | > 100 µM | – | CC[C@H](C)[C@H](NC(=O)[C@H](CC(=O)O)NC(=O)[C@H](CC(N)=O)NC(=O)[C@H](CC(C)C)NC(=O)[C@H](C)NC(=O)[C@H](CC(N)=O)NC(=O)[C@@H](N)CC(=O)O)C(=O)N[C@H](C(=O)N[C@@H](CO)C(=O)N[C@@H](CC(C)C)C(=O)O)[C@@H](C)O [TPM2] (H-DNALNDITSL-OH) | – | –
20 | > 100 µM | > 100 µM | – | CC(C)C[C@H](NC(=O)[C@@H](NC(=O)[C@@H](NC(=O)[C@H](CO)NC(=O)[C@@H]1CCCN1C(=O)[C@H](CC(C)C)NC(=O)[C@H](CCCCN)NC(=O)[C@H](CCCNC(=N)N)NC(=O)[C@@H](NC(=O)[C@@H](N)CCCNC(=N)N)C(C)C)[C@@H](C)O)[C@@H](C)O)C(=O)O [RPS6KA1] (H-RVRKLPSTTL-OH) | – | –
21 | > 100 µM | > 100 µM | – | CSCC[C@H](NC(=O)[C@H](CCCNC(=N)N)NC(=O)[C@H](CCCCN)NC(=O)[C@H](CCC(=O)O)NC(=O)[C@H](C)NC(=O)[C@@H](N)Cc1ccc(O)cc1)C(=O)N[C@@H](CC(C)C)C(=O)N[C@H](C(=O)N[C@@H](CCC(=O)O)C(=O)N[C@H](C(=O)O)C(C)C)[C@@H](C)O [KCNA6] (H-YAEKRMLTEV-OH) | – | –
